Test: permeability of Bandera sandstone (clay stabilization)
Conditions: API standard brine and tap water, 150° F. (66° C.)
Description: FIG. 1 is a graph of the effect of TMAC and Tap Water on the permeability of Bandera Sandstone at 150° F. (66° C.);
FIG. 2 is a graph of the effect of A4819 and Tap Water on the permeability of Bandera Sandstone at 150° F. (66° C.); and
FIG. 3 is a graph of the effect of A4840 and Tap Water on the permeability of Bandera Sandstone at 150° F. (66° C.).
The products TMAC (tetramethylammonium chloride), A4819 and A4840 were tested on an API standard brine and tap water on Bandera sandstone for permeability.

## C[N+](C)(C)C.[Cl-] [TMAC, tetramethylammonium chloride]
  maintaining permeability (measure that the clay is stable): performed well

Source: US7838468B2, “High molecular weight polyamine salts as clay stabilizing agents” (Baker Hughes Incorporated, priority 2003, dated 2010)
